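The compound was tested at five concentrations on cells cultured in 96-well plates, with a 48-hour exposure period. TGI: total growth inhibition.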
Key:
Assay in all cases: DTP human tumour cell line panel, 48 h
[1] = test system: NCI-H23 lung
[2] = test system: OVCAR-4 ovarian
[3] = test system: A498 renal
[4] = test system: MDA-N
[5] = test system: HCC-2998 colon
[6] = test system: U251 CNS
[7] = test system: SK-MEL-28 melanoma
[8] = test system: IGROV1 ovarian
[9] = test system: SR leukemia
[10] = test system: SF-539 CNS
[11] = test system: CAKI-1 renal
[12] = test system: KM12 colon
[13] = test system: SK-OV-3 ovarian
[14] = test system: RPMI-8226 leukemia
[15] = test system: SNB-75 CNS
[16] = test system: UO-31 renal
[17] = test system: A549 NSCLC
[18] = test system: MDA-MB-231 breast
[19] = test system: TK-10 renal

| Compound | TGI [1] | TGI [2] | TGI [3] | TGI [4] | TGI [5] | TGI [6] | TGI [7] | TGI [8] | TGI [9] | TGI [10] | TGI [11] | TGI [12] | TGI [13] | TGI [14] | TGI [15] | TGI [16] | TGI [17] | TGI [18] | TGI [19] |
| --- | --- | --- | --- | --- | --- | --- | --- | --- | --- | --- | --- | --- | --- | --- | --- | --- | --- | --- | --- |
| O=C(Nc1ccc(F)cc1)c1cc2ccc(O)cc2oc1=Nc1ccccc1F | 13.6 µM | > 100 µM | > 100 µM | > 100 µM | > 100 µM | 97.5 µM | > 100 µM | 36.1 µM | > 100 µM | > 100 µM | > 100 µM | > 100 µM | 67.1 µM | > 100 µM | – | – | – | – | – |
| CC1(C)S[C@@H]2[C@H](NC(=O)/C=C/c3ccccc3)C(=O)N2[C@H]1C(=O)O | > 100 µM | > 100 µM | – | > 100 µM | > 100 µM | > 100 µM | > 100 µM | > 100 µM | > 100 µM | > 100 µM | > 100 µM | > 100 µM | > 100 µM | > 100 µM | > 100 µM | > 100 µM | > 100 µM | > 100 µM | > 100 µM |
| c1ccc2c3nnc(c2c1)SCCSCCCSCCS3 | > 100 µM | 25.8 µM | 92.6 µM | > 100 µM | > 100 µM | > 100 µM | > 100 µM | > 100 µM | – | 40.6 µM | > 100 µM | > 100 µM | 97.5 µM | – | 18.5 µM | > 100 µM | > 100 µM | 86.1 µM | > 100 µM |
| COc1cccc(-c2cc(=O)c3cccnc3[nH]2)c1 | – | > 100 µM | > 100 µM | 0.0394 µM | – | > 100 µM | > 100 µM | > 100 µM | – | 0.538 µM | > 100 µM | > 100 µM | > 100 µM | > 100 µM | > 100 µM | > 100 µM | > 42.7 µM | > 100 µM | > 100 µM |
| COc1ccc2c(c1)CC[C@@H]1[C@@H]2CC[C@]2(C)[C@@H](O)/C(=C/c3ccncc3)C[C@@H]12 | 31.7 µM | > 100 µM | 38.3 µM | 33.2 µM | 23.6 µM | 25.1 µM | 35.5 µM | 30 µM | – | – | 34.2 µM | 31.4 µM | 49.4 µM | 25.1 µM | 39.8 µM | 31.5 µM | 41.1 µM | 32.6 µM | 34 µM |

Source: PubChem BioAssay (NCI)
